Tested on: mouse model of lung IRI
Assay: Murine lung IR model (left-lung hilar ligation), pre-treatment with P2Y2R inhibitor
Type: in vivo, mice
Settings: AR-C 5 mg/kg via jugular vein 1 hr prior to hilar ligation; 1 h ischemia + 2 h reperfusion
Procedure: Murine lung IR model. A left-lung hilar-ligation model of IRI in mice involving 1 hour of ligation (ischemia) followed by 2 hours of reperfusion.^9,20 Partial pressure of oxygen, lung compliance, lung edema, neutrophil infiltration, and cytokine levels in bronchoalveolar lavage fluid were assessed. Exposure of small pulmonary arteries and pulmonary microvascular endothelial cells to acute hypoxia-reoxygenation were used as ex vivo and in vitro surrogate models of IR, respectively.
Murine lung IR model: A well-established left lung IRI model involving temporary in vivo ligation of the left hilum (pulmonary artery, vein, and airway) was used.^6 Briefly, mice were anesthetized with inhaled isoflurane, intubated, ventilated with room air at 150 strokes/min with a tidal volume of […] (Harvard Apparatus Co, South Natick, MA), and heparinized (20 U/kg: Hospira Inc, Lake Forest, IL). […] Animals were again extubated, recovered in their cage, and monitored during the 2-hour reperfusion period. […]
Partial pressure of arterial oxygen (PaO2): After reperfusion, animals were anesthetized, intubated, and ventilated with 100% oxygen. […] Left lung-specific PaO2 was immediately measured using an i-STAT handheld blood analyzer and CG4+ cartridge (Abbott Point of Care, Princeton, NJ).
Lung wet-to-dry weight ratio: Lung wet-to-dry weight ratio was measured as an indicator of pulmonary edema. […]

Cc1ccc2c(c1)C=Cc1cc(C)ccc1C2c1cn(Cc2ccc(C(=O)Nc3nn[nH]n3)o2)c(=O)[nH]c1=S [ARC, AR-C 118925XX]
partial pressure of oxygen (PaO2) after IR (lung function): improved
pulmonary edema (lung wet-to-dry weight ratio) after IR: not in mice pre-treated with P2Y2R inhibitor AR-C

From US20260284082A1, “TARGETING THE PANX1-P2Y2R-TRPV4 PATHWAY TO TREAT LUNG ISCHEMIA-REPERFUSION INJURY” (UNIVERSITY OF VIRGINIA PATENT FOUNDATION, priority 2023, published 2026)
